# According to patent US7998718B2, “Identification and functional characterization of a novel ribosomal S6 protein kinase” (Ludwig Institute for Cancer Research Ltd., priority 1998, dated 2011):
# B1: PDGF: PDGF BB growth factor purchased from Calbiochem (protein, UniProt P01127 82-190, looked up)
# Platelet-derived growth …: SLGSLTIAEPAMIAECKTRTEVFEISRRLIDRTNANFLVWPPCVEVQRCSGCCNNRNVQCRPTQVQLRPVQVRKIEIVRKKPIFKKATVTLEDHLACKCETVAAARPVT
# modifications: Platelet-derived growth factor subunit B
# notes: PDGF BB growth factor purchased from Calbiochem
# Columns and labels:
# [1] = test system: p70β^S6k (p70β-II isoform); assay: Stimulation of S6 kinase activity in transfected CHO-IR cells; type: cell-based, human; settings: serum-starved CHO-IR cells
# Procedure: (§1) FIG. 5A. CHO-IR cells were transfected with mock (lane 1) or plasmids containing cDNAs of FLAG-tagged p70α-I (lanes 2 and 3) or FLAG-tagged p70β-II (lanes 4 to 7). After serum starvation for 16 hrs, cells were treated with the vehicle (lanes 2 and 4), 10^−7 M insulin for 10 min (lanes 3 and 5), 15% serum for 10 min (lane 6) or 500 nM TPA for 30 min (lane 7). After cell lysis and subsequent immunoprecipitation with anti-FLAG antibodies, immunoprecipitates were subjected to a p70 S6 kinase assay using 40S subunits as substrates. The reaction mixture was separated by SDS-PAGE, transferred onto PVDF membrane. The membrane was analyzed by autoradiography (upper panel) and then immunoblotted with anti-FLAG antibodies (lower panel). A representative of three experiments is shown. ^32P incorporation into S6 was quantified by Molecular Dynamics. PhosphorImager™ and is expressed in arbitrary units (PI units).
# (§2) Materials and Methods. HEK293 cells or CHO-IR cells were transfected with plasmids containing p70α^S6k and p70β^S6k sequences using lipofectAMINE under conditions recommended by the manufacturer (Gibco-BRL). Two days later, transfected cells were frozen in liquid nitrogen and stored until lysis. […]
# (§3) Results. […] The activation of p70β^S6k (p70β-II isoform) by insulin was analyzed in CHO-IR cells, which stably over expresses the insulin receptor. […]
# p70α^S6k (p70α-I) [2] = assay: S6 kinase assay (40S subunits) on immunoprecipitates of transfected HEK293 cells treated with rapamycin or wortmannin; type: cell-based, rat; settings: 30 min, HEK293 cells in DMEM with 10% FCS
# Procedure: (§4) FIG. 6A-6B. Effects of rapamycin and wortmannin on p70β^S6k and p70α^S6k. Effects of rapamycin and wortmannin on S6 phosphorylation activity of p70α-I or p70β-II. HEK293 cells were transfected with mock cDNA or plasmids containing FLAG-tagged p70β1 or p70β2 isoforms. After 48 h of transfection, cells were treated with vehicle or indicated concentrations of rapamycin or wortmannin for 30 min. After immunoprecipitation with anti-FLAG antibodies, the kinase activity was determined by a p70 S6 kinase assay using 40S subunits as substrates. The proteins of the reaction mixture were separated by SDS-PAGE, transferred onto PVDF membrane and analyzed by autoradiography (FIGS. 6A and 6B, upper panels). Subsequent immunoblotting with anti-FLAG antibody confirmed the expression of p70α-I (FIG. 6A, lower panel) and p70β-II (FIG. 6B, lower panel). A representative of three experiments is shown. ^32P incorporation into S6 was quantified by PhosphorImager and is expressed in arbitrary units (PI units).
# Materials and Methods. Restriction enzymes and DNA modification enzymes were obtained from standard commercial sources and used according to manufacturer's recommendations. Oligonucleotides which were used for sequencing of p70β^S6k and various PCR fragments were synthesized by Genosys or Japan Bioservice, Inc. The pcDNA1 and pcDNA3 mammalian expression vectors were from Invitrogen. […]
# p70β^S6k (p70β-II) = assay: as above; type: cell-based, human; settings: 30 min, HEK293 cells in DMEM with 10% FCS
# Procedure: as §4
# Materials and Methods. Treatment of transfected cells with rapamycin or wortmannin was performed as follows: 48 h after transfection, the cells were treated with various concentrations of rapamycin or wortmannin for 30 min.
# Results. […] Thus, the effects of both inhibitors on p70β^S6k activity were examined. […]
# p70α^S6k (p70α-I) [3] = assay: Stimulation of S6 kinase activity in transfected CHO-IR cells; type: cell-based, rat; settings: 10^-7 M insulin for 10 min, serum-starved CHO-IR cells
# Procedure: as §1, §2, §3
# 40S ribosomal subunit = assay: In vitro S6 kinase assay of activated kinase variants expressed in HEK293 cells; type: biochemical; settings: versus wild type p70α^S6k
# Procedure: Materials and Method. Activated variants of p70β^S6k and p70α^S6k were made by site-directed mutagenesis. Oligonucleotide primers, specific to the site to be mutated and complimentary to opposite strands of p70β^S6k and p70α^S6k sequences were generated as recommended by manufacturer (Stratagene). Site directed mutagenesis was carried out using pcDNA3/Glu-tag-p70β^S6k and pcDNA3/Glu-tag-p70α^S6k expression vector/plasmids as templates, according to the recommended protocol (Stratagene). All mutations were verified by DNA sequencing. Expression of mutated forms of both kinases was analyzed by immunobloting with anti-Glu-tag antibodies. The activity of normal and mutated forms of both kinases was measured by in vitro S6 kinase assay. 40S ribosomal subunit was used as a substrate in this reaction.
# We have generated an activated form of p70β^S6k by substituting putative phosphorylation site Thr 401 with Aspartic acid (Asp) (“p70β^S6k (T401D)”) as shown in FIG. 10.
# p70α^S6k = assay: Stimulation of S6 kinase activity by PDGF in transfected PAE-PDGF-R cells; type: cell-based, rat; settings: 20 ng/ml PDGF BB for 20 min, serum-starved PAE-PDGF-R cells
# Procedure: (§5) FIG. 5B. Stimulation of the p70α^S6k and p70β^S6k activity towards ribosomal S6 protein by PDGF in PAE-PDGF-R cells. PAE-PDGF-R cells were transfected with EE-tagged p70α^S6k and p70β^S6k plasmids using lipofectAMINE. After 24 hr, transfected cells were serum-starved for 16 hr and stimulated with 20 ng/ml PDGF BB (Calbiochem) for 20 min. Control cells were treated with the vehicle under the same conditions. After immunoprecipitation with anti-EE antibodies, an in vitro kinase reaction was carried out in the presence of 40S subunits, containing the S6 protein. Reaction mixtures were separated by SDS-PAGE and incorporation of ^32P into S6 protein was measured by PhosphoImager.
# (§6) Materials and Methods. HEK293 cells or CHO-IR cells were transfected with plasmids containing p70α^S6k and p70β^S6k sequences using lipofectAMINE under conditions recommended by the manufacturer (Gibco-BRL). Two days later, transfected cells were frozen in liquid nitrogen and stored until lysis. After cell extraction, the lysates were subjected to immunoprecipitation and/or immunoblot analysis. If cells were to be stimulated, they were starved in medium without FCS for 16 h and then stimulated with 10^−7 M insulin for 10 min, 15% FCS for 10 min, 500 nM TPA for 30 min or vehicle alone. PAE-PDGF-R cells were transfected with appropriate plasmids using lipofect under conditions recommended by the manufacturer. […]
# [4] = test system: p70β^S6k (p70β-II isoform); assay: as above; type: cell-based, human; settings: 20 ng/ml PDGF BB for 20 min, serum-starved PAE-PDGF-R cells
# Procedure: as §5, §6
molecule,measurement,setting,value
CCCCCCCCCCCCCC(=O)O[C@@H]1[C@@H](C)[C@@]2(O)[C@@H](C=C(CO)C[C@]3(O)C(=O)C(C)=C[C@@H]23)[C@@H]2C(C)(C)[C@]12OC(C)=O [TPA],stimulation of p70β^S6k phosphorylation of ribosomal protein S6,[1]; 500 nM TPA for 30 min,stimulated
CO[C@H]1C[C@@H]2CC[C@@H](C)[C@@](O)(O2)C(=O)C(=O)N2CCCC[C@H]2C(=O)O[C@H]([C@H](C)C[C@@H]2CC[C@@H](O)[C@H](OC)C2)CC(=O)[C@H](C)/C=C(\C)[C@@H](O)[C@@H](OC)C(=O)[C@H](C)C[C@H](C)/C=C/C=C/C=C/1C [rapamycin],inhibition of the p70α^S6k,p70α^S6k (p70α-I) [2]; 20 nM rapamycin,92%
same,inhibition of p70β^S6k,p70β^S6k (p70β-II); 20 nM rapamycin,46%
COC[C@H]1OC(=O)c2coc3c2[C@@]1(C)C1=C(C3=O)[C@@H]2CCC(=O)[C@@]2(C)C[C@H]1OC(C)=O [wortmannin],inhibition of p70α^S6k activity,p70α^S6k (p70α-I) [2]; 100 nM wortmannin,86%
same,inhibition of p70β^S6k activity,p70β^S6k (p70β-II); 100 nM wortmannin,62%
insulin: hormone used to stimulate CHO-IR cells,activation of p70α^S6k activity,p70α^S6k (p70α-I) [3],3.5 fold
same,induction of p70β^S6k activity towards ribosomal S6 protein,[1]; 10^-7 M insulin for 10 min,2.8 fold
p70α^S6k (T412D): activated version of p70α^S6k made by site-directed mutagenesis,S6 kinase activation compared with wild type kinase,40S ribosomal subunit,18 fold
B1,activation of p70α^S6k,p70α^S6k,3.4 fold
same,activation of p70β^S6k,[4],30 fold
